Data published in PubChem BioAssay AID1632 (University of Pittsburgh Molecular Library Screening Center, 2009).
Results filed as inconclusive are left out.

Molecular target: hexokinase 1 [Trypanosoma brucei]
Experiment: T. brucei hexokinase 1 inhibitor potency, dose response, biochemical, IC50 (AID 1632)
Details: recombinant TbHK1 enzyme assay, absorbance read-out; for inhibition: at 100 µM, stronger effect = higher value

Compound | inhibition [%] | IC50 [nM]
CCCCCCCCCCCNC(=O)c1ccoc1C | 73.4 | –
COc1ccc(C(=O)Nc2cc(Cl)ccc2C(=O)O)cc1 | 75.7 | –
COc1cc(/C=C(\C#N)c2nc3c(s2)CCCC3)ccc1O | 42.4 | –
O=C(Cn1sc2ccccc2c1=O)NC12CC3CC(CC(C3)C1)C2 | 74.6 | –
COC(=O)c1ccccc1NC(=O)CCS(=O)(=O)c1ccc(Br)cc1 | 71.7 | –
O=c1c2ccccc2sn1-c1ccccc1 | 22.3 | –
CCOC(=O)Cc1csc(-n2sc3ccccc3c2=O)n1 | 46.9 | –
Cc1ccccc1-n1sc2cc(F)ccc2c1=O | 87.8 | –
C/C(=C/CCC(C)[C@H]1CC[C@@]2(C)C3=C(CC[C@]12C)[C@@]1(C)CCC(=O)C(C)(C)[C@@H]1CC3)C(=O)O (some centres undefined) | 55.3 | –
CCCCc1ccc(/C=C2/C(=O)ON=C2c2ccccc2)s1 | 32.1 | –
Cc1ccc(CNC(=O)CCS(=O)(=O)c2ccc(Br)cc2)cc1 | 82.3 | –
O=[N+]([O-])c1cc(/C=N\Nc2nccs2)ccc1O | 33.3 | 2690
O=C(O)CCCCC1CCSS1 (centres undefined) | 96.4 | –
